These results are taken from patent US10925887B2, “Steroid saponins with anti-cancer activity” (Oncology Research International Limited, priority 2017, dated 2021).

What all share (type): cell-based
For data set [1], the system named is washed human erythrocytes. Briefly: in vitro haemolysis assay. The conditions noted are these: for HD50 (50% haemolytic dose): washed human erythrocytes, 3 hours at 37° C. As to the method: Haemolysis is a clinical condition where the red cell membrane is irreversibly damaged causing the release of its haemoglobin content. The in vitro haemolysis assay is a simple test to determine the haemolytic potential of a test substance on isolated and washed red blood cells.
In this example three compounds identified as compound A, compound C disodium salt and compound B ½ maleate salt and Saponin from Quillaja bark (S4521) were tested for haemolytic potential using washed human erythrocytes. The compounds were tested over a dose curve with a maximum concentration of […] and a lowest concentration of […]. The concentration range is […].
Briefly, whole blood (40 mL) was collected from a single human volunteer into multiple EDT vacutainer tubes. The red blood cells (RBC) were washed and isolated from plasma components by three centrifugations at 3000 rpm for 5 minutes in isotonic 0.9% sodium chloride. After the final wash, 0.1 mL volumes of red blood cells were added to each treatment tube.
The test compounds compound A, compound C disodium salt and compound B % maleate salt and the reference article (Saponin S4521) were initially formulated as 100× stock solutions at a concentration of 10 mg/mL in the appropriate diluents (DMSO for compounds, 0.9% NaCl for Saponin S4521). These stock solutions were then further diluted 1:100 in 0.9% NaCl to prepare the highest concentration of […] in 1% DMSO/NaCl. The highest concentration solutions were further diluted serially 1:2 in 1% DMSONaC1 to achieve lower concentrations of 50, 25, 12.5, 6.25, 3.125, 1.562 and 0.781 pg/ml of active component.
The positive control article (hypertonic solution of […]) was formulated by weighing 2.92 g NaCl in 10 mL MilliQ water. The negative control article (isotonic solution of 0.154M NaCl) was formulated on the day of use by dissolving 0.09 g NaCl into 10 mL MilliQ water. The vehicle used to dilute the test articles, 1% DMSO/NaCl, was used as the reagent blank in the assay.
Tubes containing cells and treatments were incubated at 37° C. with gentle agitation in an orbital mixer for 3 hours. At completion of the incubation, tubes were centrifuged at 3000 rpm for 5 minutes and 200 ptL aliquots of supernatant from each tube were transferred to a 96-well microplate for measurement of absorbance at 535 nm. A layout for the 96-Nell microplate is presented in Appendix 1. A 1% DMSO/NaCl vehicle in the absence of blood was used as the reagent blank in the assay.
Mean values for the negative (0.154M NaCl), positive (5M NaCl) and blank triplicate wells were determined. These were then used to calculate the % haemolysis for each sample according to the following formula: […]
Calculations of 50% haemolytic dose (HD50) was performed by non-linear regression analyses using a log(agonist) vs normalized response variable slope curve fit on GraphPad Prism for Mac OS X (Version 5.0c, GraphPad Software, California, USA).

A further data set deals with PC-3. Briefly: CellTiter-Blue cell growth inhibition assay, PC-3. The conditions noted are these: Homo sapiens, PC-3, 48 h.
The test system of a further data set is A549. Briefly: CellTiter-Blue cell growth inhibition assay, A549. The conditions noted are these: Homo sapiens, A549, 48 h. The protocol:
(§1) Duplicate experiments were performed using the CellTiter-Blue® Cell Viability Assay to determine IC50 values for Compound A, Compound B and Compound C against each cell line. The general methodology for preparation of test articles described in Example 6 was used. The test compounds compound A, compound C disodium salt and compound B ½ maleate salt were initially formulated as 100× stock solutions at a concentration of 10 mg/mL in the appropriate diluents (DMSO for compounds). These stock solutions were then further diluted in cell culture medium to achieve lower concentrations of 100, 50, 25, 12.5, 6.25 and 3.125, 1.563, 0.781, 0.390 and 0.195 μM of active component. The specific cancer cells were A549, HCT 116, MCF-7 and MIA PaCa-2.
(§2) Human cancer cell types were: HTC-116 (colon); A549 (Lung); HT29 (colon); MCF-7; Mia PaCa-2 (pancreas)
(§3) Cells were seeded in duplicate at 3-4,000 per microtitre well in 50 μl of cell culture medium . After 24 hours, 50 μL of test article or vehicle control prepared in medium at 2× required concentration were added to each well. Cancer cells were allowed to grow in the presence of drug for 48 hours before cell growth relative to untreated control wells was determined with CellTiter-Blue® Cell Viability Assay.
(§4) IC50 values were calculated using Prism 6 for Mac OS X using a nonlinear regression (log(inhibitor) vs. response—Variable slope (four parameters)
On the technique in general: The colour change of resazurin is a common sign of viable cells or microbes.

The test system of the next data set is MCF-7. Briefly: CellTiter-Blue cell growth inhibition assay, MCF-7. The conditions noted are these: Homo sapiens, MCF7, 48 h. As to the method: as §1, §2, §3, §4
The subject of a further data set is HCT 116. The experiment in a line: CellTiter-Blue cell growth inhibition assay, HCT 116. The conditions noted are these: Homo sapiens, HCT-116, 48 h. The protocol: as §1, §2, §3, §4
In a further data set the test system is MIA PaCa-2. Briefly: CellTiter-Blue cell growth inhibition assay, MIA PaCa-2. The conditions noted are these: Homo sapiens, MIA PaCa-2, 48 h. The protocol:
as §1, §2, §3, §4

[2] abbreviates: HCT 116, Average ± SEM, 48 hours.
Setting [3] is: HCT 116, Experiment 1, 48 hours.
Setting [4] is: HCT 116, Experiment 2, 48 hours.
Where [5] appears, read: MIA PaCa-2, Average ± SEM, 48 hours.
Setting [6] is: MIA PaCa-2, Experiment 1, 48 hours.
[7] abbreviates: MIA PaCa-2, Experiment 2, 48 hours.

Consider `CC1O[C@@H](OC2C(O)[C@H](O)C(CO)O[C@H]2O[C@H]2CC[C@@]3(C)C(=CC[C@H]4[C@@H]5C[C@@H]6O[C@]7(CC[C@@H](C)CO7)[C@@H](C)[C@@H]6[C@@]5(C)CC[C@@H]43)C2)C(O)C(O)[C@H]1O` (stereo partly drawn) [Compound A, diosgenyl α-L-rhamnopyranosyl-(1→2)-β-D-glucopyranoside, reference compound], for which the percent haemolysis is given as −0.3% in data set [1] (concentration 0.781 μg/ml); 0.5% in data set [1] (concentration 1.562 μg/ml); −0.1% in data set [1] (concentration 3.125 μg/ml); 3.2% in data set [1] (concentration 6.25 μg/ml); 13.4% in data set [1] (concentration 12.5 μg/ml); 36.0% in data set [1] (concentration 25 μg/ml). Moreover, the percent haemolysis is reported as 86.7% in data set [1] (concentration 50 μg/ml) and 103.2% in data set [1] (concentration 100 μg/ml). Further, the “HD50 (50% haemolytic dose)” value in data set [1] stood at 31.57 µg/mL. Further, the half-maximal inhibitory concentration (IC50) in the data set on PC-3 (PC-3, Average ± SEM, 48 hours) came to 6.14 ± 0.29 µM; in the data set on PC-3 (PC-3, Experiment 1, 48 hours) it was 6.42 µM; in the data set on PC-3 (PC-3, Experiment 2, 48 hours), 5.85 µM; with A549 (A549, Average ± SEM, 48 hours), 4.17 ± 0.57 µM; with A549 (A549, Experiment 1, 48 hours), 4.74 µM; with A549 (A549, Experiment 2, 48 hours) it was 3.6 µM. The IC50 worked out at 7.65 ± 0.27 µM in the data set on MCF-7 (MCF-7, Average ± SEM, 48 hours); 7.91 µM with MCF-7 (MCF-7, Experiment 1, 48 hours); 7.38 µM in the data set with MCF-7 (MCF-7, Experiment 2, 48 hours); 5.1 ± 0.08 µM with HCT 116 (setting [2]); 5.17 µM in the data set on HCT 116 (setting [3]); 5.02 µM in the data set with HCT 116 (setting [4]). The figures for the half-maximal inhibitory concentration (IC50) with MIA PaCa-2 (setting [5]), in the data set on MIA PaCa-2 (setting [6]) and with MIA PaCa-2 (setting [7]) were 5.63 ± 0.55 µM, 6.17 µM and 5.08 µM, respectively.

As to `CC1O[C@@H](OC2C(O)[C@H](O)C(COC(=O)[C@@H](N)C(C)C)O[C@H]2O[C@H]2CC[C@@]3(C)C(=CC[C@H]4[C@@H]5C[C@@H]6O[C@]7(CC[C@@H](C)CO7)[C@@H](C)[C@@H]6[C@@]5(C)CC[C@@H]43)C2)C(O)C(O)[C@H]1O` (stereo partly drawn) [Compound B], the 50% inhibitory concentration (IC50) with PC-3 (PC-3, Average ± SEM, 48 hours) amounted to 11.7 ± 0.7 µM; in the data set on PC-3 (PC-3, Experiment 1, 48 hours), 12.4 µM; in the data set on PC-3 (PC-3, Experiment 2, 48 hours), 11 µM; with A549 (A549, Average ± SEM, 48 hours), 10.2 ± 0.31 µM; in the data set with A549 (A549, Experiment 1, 48 hours), 9.86 µM; with A549 (A549, Experiment 2, 48 hours), 10.5 µM. Besides, the IC50 in the data set on MCF-7 (MCF-7, Average ± SEM, 48 hours) is 15 ± 0.32 µM; with MCF-7 (MCF-7, Experiment 1, 48 hours), 14.7 µM; with MCF-7 (MCF-7, Experiment 2, 48 hours), 15.3 µM; in the data set with HCT 116 (setting [2]) it was 12.4 ± 0.72 µM; in the data set on HCT 116 (setting [3]), 11.7 µM; in the data set on HCT 116 (setting [4]), 13.1 µM. Moreover, the IC50 is 9.39 ± 1.77 µM in the data set with MIA PaCa-2 (setting [5]), 11.2 µM in the data set with MIA PaCa-2 (setting [6]) and 7.62 µM in the data set on MIA PaCa-2 (setting [7]).

On to `CC1O[C@@H](OC2C(O)[C@H](O)C(COP(=O)([O-])O)O[C@H]2O[C@H]2CC[C@@]3(C)C(=CC[C@H]4[C@@H]5C[C@@H]6O[C@]7(CC[C@@H](C)CO7)[C@@H](C)[C@@H]6[C@@]5(C)CC[C@@H]43)C2)C(O)C(O)[C@H]1O.[Na+]` (stereo partly drawn) [Compound C disodium salt], for which the percent haemolysis is 1.0% in data set [1] (concentration 0.781 μg/ml); 1.9% in data set [1] (concentration 1.562 μg/ml); 0.5% in data set [1] (concentration 3.125 μg/ml); 1.6% in data set [1] (concentration 6.25 μg/ml); 0.5% in data set [1] (concentration 12.5 μg/ml); 1.8% in data set [1] (concentration 25 μg/ml). Besides, the percent haemolysis in data set [1] (concentration 50 μg/ml) turned out to be 2.9%; in data set [1] (concentration 100 μg/ml) it was 51.9%. The “HD50 (50% haemolytic dose)” value in data set [1] is 145.70 µg/mL.

Regarding `CC1O[C@@H](OC2C(O)[C@H](O)C(COP(=O)(O)O)O[C@H]2O[C@H]2CC[C@@]3(C)C(=CC[C@H]4[C@@H]5C[C@@H]6O[C@]7(CC[C@@H](C)CO7)[C@@H](C)[C@@H]6[C@@]5(C)CC[C@@H]43)C2)C(O)C(O)[C@H]1O` (stereo partly drawn) [Compound C], the IC50 in the data set with PC-3 (PC-3, Average ± SEM, 48 hours) is 3.25 ± 1.07 µM; in the data set with PC-3 (PC-3, Experiment 1, 48 hours), 4.32 µM; with PC-3 (PC-3, Experiment 2, 48 hours), 2.18 µM; in the data set with A549 (A549, Average ± SEM, 48 hours), 2 ± 0.47 µM; in the data set with A549 (A549, Experiment 1, 48 hours) it was 2.46 µM; with A549 (A549, Experiment 2, 48 hours), 1.53 µM. The IC50 in the data set with MCF-7 (MCF-7, Average ± SEM, 48 hours) was 4.17 ± 1.29 µM; in the data set on MCF-7 (MCF-7, Experiment 1, 48 hours), 5.45 µM; in the data set with MCF-7 (MCF-7, Experiment 2, 48 hours) it was 2.88 µM; in the data set with HCT 116 (setting [2]), 3.04 ± 1.05 µM; in the data set on HCT 116 (setting [3]), 4.08 µM; in the data set with HCT 116 (setting [4]), 1.99 µM. Also, the IC50 came out at 3.04 ± 0.49 µM in the data set on MIA PaCa-2 (setting [5]), 3.52 µM in the data set on MIA PaCa-2 (setting [6]) and 2.55 µM in the data set on MIA PaCa-2 (setting [7]).

Usually IC50 stands for the point on the concentration scale where inhibition reaches its midpoint.
